In ChEMBL document CHEMBL5032500, “Adenosine A2AR/A1R Antagonists Enabling Additional H3R Antagonism for the Treatment of Parkinson's Disease” (J Med Chem, 2021):
pIC50, pKi: −log10 of the molar value. One block for each compound: values may come before it. Activity calls are given as the source filed them. No cut-off for these calls is given here.

Experiments:
Adenosine receptor A1 = molecular target: T1, Adenosine receptor A1 (Homo sapiens, UniProt P30542); assay: Displacement of [3H]CCPA from human recombinant adenosine A1 receptor expressed in CHO cells by liquid scintillation counting analysis; format: cell-based
T1 sequence (P30542 whole entry): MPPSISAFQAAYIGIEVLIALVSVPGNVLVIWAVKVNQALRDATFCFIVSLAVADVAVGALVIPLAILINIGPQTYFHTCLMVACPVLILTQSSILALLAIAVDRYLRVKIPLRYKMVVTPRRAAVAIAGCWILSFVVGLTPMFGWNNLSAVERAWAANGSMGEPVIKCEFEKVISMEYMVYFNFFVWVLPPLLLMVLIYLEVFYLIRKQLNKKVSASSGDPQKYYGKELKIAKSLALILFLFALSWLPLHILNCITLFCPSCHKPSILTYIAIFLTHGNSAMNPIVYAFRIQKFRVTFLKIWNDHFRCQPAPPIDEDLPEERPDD

Adenosine receptor A2a [1] = molecular target: T2, Adenosine receptor A2a (Homo sapiens, UniProt P29274); assay: Displacement of [3H]MSX-2 from human recombinant adenosine A2A receptor expressed in CHO cells by liquid scintillation counting analysis; format: cell-based
T2 sequence (P29274 whole entry): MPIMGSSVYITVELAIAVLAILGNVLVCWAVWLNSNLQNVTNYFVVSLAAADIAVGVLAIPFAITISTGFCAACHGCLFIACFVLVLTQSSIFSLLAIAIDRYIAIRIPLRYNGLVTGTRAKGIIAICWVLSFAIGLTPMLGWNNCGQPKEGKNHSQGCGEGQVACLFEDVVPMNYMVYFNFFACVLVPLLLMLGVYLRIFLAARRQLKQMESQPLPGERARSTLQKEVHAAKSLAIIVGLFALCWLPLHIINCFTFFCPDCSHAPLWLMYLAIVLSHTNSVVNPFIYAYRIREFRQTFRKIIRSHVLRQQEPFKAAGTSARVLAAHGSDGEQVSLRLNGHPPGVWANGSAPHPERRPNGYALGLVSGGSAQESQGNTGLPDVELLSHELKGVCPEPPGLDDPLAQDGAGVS

Adenosine receptor A2b = molecular target: T3, Adenosine receptor A2b (Homo sapiens, UniProt P29275); assay: Displacement of [3H]PSB-603 from human recombinant adenosine A2B receptor expressed in CHO cells by liquid scintillation counting analysis; format: cell-based
T3 sequence (P29275 whole entry): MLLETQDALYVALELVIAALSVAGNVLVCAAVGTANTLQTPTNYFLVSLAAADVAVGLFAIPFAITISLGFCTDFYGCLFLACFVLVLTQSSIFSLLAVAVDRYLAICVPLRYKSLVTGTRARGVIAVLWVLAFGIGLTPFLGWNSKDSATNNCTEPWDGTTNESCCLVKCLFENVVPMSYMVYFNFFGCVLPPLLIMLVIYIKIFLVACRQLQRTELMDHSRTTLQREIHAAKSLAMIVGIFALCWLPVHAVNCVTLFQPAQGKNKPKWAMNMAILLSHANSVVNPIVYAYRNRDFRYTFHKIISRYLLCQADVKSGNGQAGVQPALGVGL

Adenosine receptor A3 = molecular target: T4, Adenosine receptor A3 (Homo sapiens, UniProt P0DMS8); assay: Displacement of [3H]PSB-11 from human recombinant adenosine A3 receptor expressed in CHO cells by liquid scintillation counting analysis; format: cell-based
T4 sequence (P0DMS8 whole entry): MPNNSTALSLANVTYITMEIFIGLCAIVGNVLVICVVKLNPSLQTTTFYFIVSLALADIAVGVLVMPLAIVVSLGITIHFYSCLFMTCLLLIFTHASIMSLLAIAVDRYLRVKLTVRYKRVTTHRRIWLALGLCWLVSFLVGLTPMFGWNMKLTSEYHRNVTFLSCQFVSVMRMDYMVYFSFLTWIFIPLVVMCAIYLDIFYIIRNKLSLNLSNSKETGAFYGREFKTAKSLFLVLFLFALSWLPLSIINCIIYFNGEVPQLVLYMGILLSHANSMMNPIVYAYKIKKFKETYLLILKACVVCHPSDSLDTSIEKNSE

Histamine H3 receptor = Histamine H3 receptor (Homo sapiens, UniProt Q9Y5N1); assay: Displacement of [3H] N-alpha methylhistamine from human recombinant histamine H3 receptor expressed in HEK293 cells measured after 90 mins; format: cell-based
Chain of Histamine H3 receptor (Q9Y5N1 whole entry): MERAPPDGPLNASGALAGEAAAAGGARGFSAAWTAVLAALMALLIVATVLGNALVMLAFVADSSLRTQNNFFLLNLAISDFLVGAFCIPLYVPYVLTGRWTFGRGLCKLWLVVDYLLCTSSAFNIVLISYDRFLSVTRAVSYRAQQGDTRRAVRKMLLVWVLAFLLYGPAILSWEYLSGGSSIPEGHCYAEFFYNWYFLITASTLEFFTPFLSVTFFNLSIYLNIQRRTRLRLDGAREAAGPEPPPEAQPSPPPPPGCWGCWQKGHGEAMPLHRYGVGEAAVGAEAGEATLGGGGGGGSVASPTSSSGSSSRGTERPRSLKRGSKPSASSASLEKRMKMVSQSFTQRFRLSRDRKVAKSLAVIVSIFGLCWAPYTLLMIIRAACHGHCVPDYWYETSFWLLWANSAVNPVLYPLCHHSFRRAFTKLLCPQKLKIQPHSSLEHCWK

Adenosine receptor A2a [2] = molecular target: T2, Adenosine receptor A2a; assay: […] activity at human recombinant adenosine A2A receptor expressed in CHO cells assessed as inhibition of NECA-induced cAMP accumulation incubated for 20 mins by radioligand competition binding assay; format: functional, cell-based
Histamine H1 receptor = Histamine H1 receptor (Homo sapiens, UniProt P35367); assay: Displacement of [3H]pyrilamine from human recombinant histamine H1 receptor expressed in CHO cells by liquid scintillation counting analysis; format: cell-based
Chain of Histamine H1 receptor (P35367 whole entry): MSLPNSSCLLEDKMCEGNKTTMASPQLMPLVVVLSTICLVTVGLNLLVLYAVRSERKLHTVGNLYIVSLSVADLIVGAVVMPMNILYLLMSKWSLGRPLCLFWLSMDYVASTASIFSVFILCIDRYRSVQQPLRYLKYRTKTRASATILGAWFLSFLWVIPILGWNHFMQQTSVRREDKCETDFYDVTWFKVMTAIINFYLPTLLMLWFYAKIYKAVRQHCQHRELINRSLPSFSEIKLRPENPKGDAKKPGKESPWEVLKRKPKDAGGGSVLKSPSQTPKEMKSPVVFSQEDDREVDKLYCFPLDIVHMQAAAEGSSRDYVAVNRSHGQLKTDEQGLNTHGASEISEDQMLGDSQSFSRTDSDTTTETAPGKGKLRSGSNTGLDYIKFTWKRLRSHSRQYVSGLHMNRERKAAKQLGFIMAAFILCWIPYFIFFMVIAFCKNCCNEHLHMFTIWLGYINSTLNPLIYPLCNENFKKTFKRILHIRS

Histamine H4 receptor = Histamine H4 receptor (Homo sapiens, UniProt Q9H3N8); assay: Displacement of [3H]histamine from human recombinant histamine H4 receptor expressed in sf9 cells by liquid scintillation counting analysis
[3] = Displacement of [3H]SCH23390 from human recombinant dopamine D1 receptor expressed in HEK293 cells by liquid scintillation counting analysis; format: cell-based
D(1B) dopamine receptor = D(1B) dopamine receptor (Homo sapiens, UniProt P21918); assay: Displacement of [3H]SCH23390 from human recombinant dopamine D5 receptor expressed in HEK293 cells by liquid scintillation counting analysis; format: cell-based
Chain of D(1B) dopamine receptor (P21918 whole entry): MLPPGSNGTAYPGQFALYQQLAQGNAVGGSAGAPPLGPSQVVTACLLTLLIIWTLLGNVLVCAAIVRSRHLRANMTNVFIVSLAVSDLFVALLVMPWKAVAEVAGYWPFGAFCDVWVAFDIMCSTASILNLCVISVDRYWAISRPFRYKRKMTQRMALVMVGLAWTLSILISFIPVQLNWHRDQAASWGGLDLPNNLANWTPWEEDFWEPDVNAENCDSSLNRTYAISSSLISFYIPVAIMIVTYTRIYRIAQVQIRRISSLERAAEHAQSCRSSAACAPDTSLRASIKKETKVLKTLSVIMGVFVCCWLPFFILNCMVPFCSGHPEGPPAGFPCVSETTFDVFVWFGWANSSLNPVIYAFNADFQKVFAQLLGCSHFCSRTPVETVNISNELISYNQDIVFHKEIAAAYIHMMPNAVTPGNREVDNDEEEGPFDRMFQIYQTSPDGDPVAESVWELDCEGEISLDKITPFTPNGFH

D(2) dopamine receptor = D(2) dopamine receptor (Homo sapiens, UniProt P14416); assay: Displacement of [3H]spiperone from human recombinant dopamine D2S receptor expressed in CHO cells by liquid scintillation counting analysis; format: cell-based
Chain of D(2) dopamine receptor (P14416 whole entry): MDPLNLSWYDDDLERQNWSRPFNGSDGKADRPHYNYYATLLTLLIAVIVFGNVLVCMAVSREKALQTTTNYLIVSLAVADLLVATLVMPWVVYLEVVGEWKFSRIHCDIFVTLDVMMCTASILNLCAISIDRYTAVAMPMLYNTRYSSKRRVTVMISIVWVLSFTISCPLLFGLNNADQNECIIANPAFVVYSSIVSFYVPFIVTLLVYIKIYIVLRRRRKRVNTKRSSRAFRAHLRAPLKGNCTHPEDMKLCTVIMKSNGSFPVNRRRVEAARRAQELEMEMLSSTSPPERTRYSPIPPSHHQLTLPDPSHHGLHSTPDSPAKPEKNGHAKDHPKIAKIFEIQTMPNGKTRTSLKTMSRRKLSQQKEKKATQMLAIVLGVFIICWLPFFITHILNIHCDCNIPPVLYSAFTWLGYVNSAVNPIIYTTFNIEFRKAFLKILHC

D(3) dopamine receptor = D(3) dopamine receptor (Homo sapiens, UniProt P35462); assay: Displacement of [3H]spiperone from human recombinant dopamine D3 receptor expressed in CHO cells by liquid scintillation counting analysis; format: cell-based
Chain of D(3) dopamine receptor (P35462 whole entry): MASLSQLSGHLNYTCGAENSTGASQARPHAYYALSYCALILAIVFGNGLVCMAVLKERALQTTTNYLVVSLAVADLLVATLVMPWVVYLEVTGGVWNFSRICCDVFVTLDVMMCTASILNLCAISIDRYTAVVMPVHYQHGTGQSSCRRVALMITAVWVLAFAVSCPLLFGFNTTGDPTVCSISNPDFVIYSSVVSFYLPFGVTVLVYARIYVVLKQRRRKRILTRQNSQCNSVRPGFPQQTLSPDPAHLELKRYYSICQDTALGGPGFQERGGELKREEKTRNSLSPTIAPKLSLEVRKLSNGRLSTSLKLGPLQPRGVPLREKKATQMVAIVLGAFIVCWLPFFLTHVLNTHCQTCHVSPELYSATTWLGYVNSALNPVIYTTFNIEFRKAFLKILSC

MAO-A = MAO-A (Homo sapiens, UniProt P21397); assay: Inhibition of human recombinant MAO-A using kynuramine as substrate at 10 uM measured for 30 mins by spectrophotometric analysis; details: probe kynuramine
Chain of MAO-A (P21397 whole entry): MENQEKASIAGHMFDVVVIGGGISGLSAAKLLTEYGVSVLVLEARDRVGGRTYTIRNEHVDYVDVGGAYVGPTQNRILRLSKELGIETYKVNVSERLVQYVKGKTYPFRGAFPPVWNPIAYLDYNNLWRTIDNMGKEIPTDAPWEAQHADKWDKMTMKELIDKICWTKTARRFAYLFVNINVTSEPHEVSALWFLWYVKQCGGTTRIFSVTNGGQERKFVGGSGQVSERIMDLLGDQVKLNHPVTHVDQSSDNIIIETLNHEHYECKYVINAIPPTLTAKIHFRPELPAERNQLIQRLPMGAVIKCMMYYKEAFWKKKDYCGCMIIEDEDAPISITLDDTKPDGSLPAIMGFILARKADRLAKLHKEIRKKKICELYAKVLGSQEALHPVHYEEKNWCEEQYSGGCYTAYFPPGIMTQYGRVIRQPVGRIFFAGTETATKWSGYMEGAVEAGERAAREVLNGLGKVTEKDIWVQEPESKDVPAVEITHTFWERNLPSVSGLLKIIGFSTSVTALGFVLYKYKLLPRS

[4] = molecular target: Amine oxidase [flavin-containing] B (Homo sapiens, UniProt P27338); assay: Inhibition of human recombinant MAO-B using kynuramine as substrate measured for 30 mins by spectrophotometric analysis
Chain of Amine oxidase [flavin-containing] B (P27338 whole entry): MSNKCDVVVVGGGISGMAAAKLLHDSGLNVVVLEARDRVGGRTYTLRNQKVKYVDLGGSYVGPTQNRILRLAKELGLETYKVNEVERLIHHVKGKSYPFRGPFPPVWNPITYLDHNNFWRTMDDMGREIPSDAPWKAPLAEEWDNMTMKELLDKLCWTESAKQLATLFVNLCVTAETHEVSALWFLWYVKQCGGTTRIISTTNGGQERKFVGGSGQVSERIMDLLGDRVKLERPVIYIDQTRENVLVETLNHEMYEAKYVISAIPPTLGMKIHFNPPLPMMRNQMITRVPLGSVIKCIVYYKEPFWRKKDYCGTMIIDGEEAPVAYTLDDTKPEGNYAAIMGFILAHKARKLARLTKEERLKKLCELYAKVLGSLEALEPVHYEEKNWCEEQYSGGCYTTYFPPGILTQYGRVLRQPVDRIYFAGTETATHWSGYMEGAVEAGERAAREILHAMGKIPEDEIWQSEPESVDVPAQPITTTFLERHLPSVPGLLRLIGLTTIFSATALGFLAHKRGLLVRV

MAO-B = MAO-B (Homo sapiens, UniProt P27338); assay: Inhibition of human recombinant MAO-B using kynuramine as substrate at 10 uM measured for 30 mins by spectrophotometric analysis; details: probe kynuramine
Chain of MAO-B (P27338 whole entry): as above

Rattus norvegicus = assay: Antiparkinson's activity in ip dosed L-DOPA induced dyskinesia Sprague-Dawley rat model assessed as reduction in dyskinesia by measuring abnormal involuntary movement upto 21 days; format: functional, organism-based; details: dose 0.1-1 mg/kg, time day <=21
Homo sapiens [5] = species on record: Homo sapiens; assay: Selectivity index, ratio of Ki for human recombinant adenosine A1 receptor to Ki for human recombinant histamine H3 receptor
Homo sapiens [6] = species on record: Homo sapiens; assay: Selectivity index, ratio of Ki for human recombinant adenosine A2A receptor to Ki for human recombinant histamine H3 receptor
Homo sapiens [7] = species on record: Homo sapiens; assay: Selectivity index, ratio of Ki for human recombinant adenosine A2B receptor to Ki for human recombinant histamine H3 receptor
Homo sapiens [8] = species on record: Homo sapiens; assay: Selectivity index, ratio of Ki for human recombinant adenosine A3 receptor to Ki for human recombinant histamine H3 receptor
Homo sapiens [9] = species on record: Homo sapiens; assay: Selectivity index, ratio of Ki for human recombinant dopamine D2S receptor to Ki for human recombinant histamine H3 receptor
Homo sapiens [10] = species on record: Homo sapiens; assay: Selectivity index, ratio of Ki for human recombinant dopamine D3 receptor to Ki for human recombinant histamine H3 receptor
Homo sapiens [11] = species on record: Homo sapiens; assay: Selectivity index, ratio of Ki for human recombinant adenosine A2A receptor to Ki for human recombinant adenosine A1 receptor
Homo sapiens [12] = species on record: Homo sapiens; assay: Selectivity index, ratio of Ki for human recombinant adenosine A2B receptor to Ki for human recombinant adenosine A1 receptor
[13] = molecular target: Adenosine receptors; A1 & A3 (Homo sapiens) (UniProt P30542+P0DMS8); assay: Selectivity index, ratio of Ki for human recombinant adenosine A3 receptor to Ki for human recombinant adenosine A1 receptor; format: protein assay
Homo sapiens [14] = species on record: Homo sapiens; assay: Selectivity index, ratio of Ki for human recombinant dopamine D2S receptor to Ki for human recombinant adenosine A1 receptor
Homo sapiens [15] = species on record: Homo sapiens; assay: Selectivity index, ratio of Ki for human recombinant dopamine D3 receptor to Ki for human recombinant adenosine A1 receptor
Homo sapiens [16] = species on record: Homo sapiens; assay: Selectivity index, ratio of Ki for human recombinant adenosine A2B receptor to Ki for human recombinant adenosine A2A receptor
Homo sapiens [17] = species on record: Homo sapiens; assay: Selectivity index, ratio of Ki for human recombinant adenosine A3 receptor to Ki for human recombinant adenosine A2A receptor
Homo sapiens [18] = species on record: Homo sapiens; assay: Selectivity index, ratio of Ki for human recombinant dopamine D2S receptor to Ki for human recombinant adenosine A2A receptor
Homo sapiens [19] = species on record: Homo sapiens; assay: Selectivity index, ratio of Ki for human recombinant dopamine D3 receptor to Ki for human recombinant adenosine A2A receptor
Homo sapiens [20] = species on record: Homo sapiens; assay: Selectivity index, ratio of Ki for human recombinant adenosine A3 receptor to Ki for human recombinant adenosine A2B receptor
Homo sapiens [21] = species on record: Homo sapiens; assay: Selectivity index, ratio of Ki for human recombinant dopamine D2S receptor to Ki for human recombinant adenosine A2B receptor
Homo sapiens [22] = species on record: Homo sapiens; assay: Selectivity index, ratio of Ki for human recombinant dopamine D3 receptor to Ki for human recombinant adenosine A2B receptor
Homo sapiens [23] = species on record: Homo sapiens; assay: Selectivity index, ratio of Ki for human recombinant dopamine D2S receptor to Ki for human recombinant adenosine A3 receptor
Homo sapiens [24] = species on record: Homo sapiens; assay: Selectivity index, ratio of Ki for human recombinant dopamine D3 receptor to Ki for human recombinant adenosine A3 receptor
Homo sapiens [25] = species on record: Homo sapiens; assay: Selectivity index, ratio of Ki for human recombinant dopamine D3 receptor to Ki for human recombinant dopamine D2S receptor
[26] = molecular target: T5, Adenosine receptor A1 (Homo sapiens) (UniProt P30542); assay: Displacement of [3H]CCPA from human recombinant adenosine A1 receptor expressed in CHO cells at 1 uM by liquid scintillation counting analysis; format: cell-based
T5 sequence (whole entry): T1 sequence (P30542 whole entry)

[27] = molecular target: T6, Adenosine receptor A2b (Homo sapiens) (UniProt P29275); assay: Displacement of [3H]PSB-603 from human recombinant adenosine A2B receptor expressed in CHO cells at 1 uM by liquid scintillation counting analysis; format: cell-based
T6 sequence (whole entry): T3 sequence (P29275 whole entry)

[28] = molecular target: T7, Adenosine receptor A3 (Homo sapiens) (UniProt P0DMS8); assay: Displacement of [3H]PSB-11 from human recombinant adenosine A3 receptor expressed in CHO cells at 1 uM by liquid scintillation counting analysis; format: cell-based
T7 sequence (whole entry): T4 sequence (P0DMS8 whole entry)

- pKi (Adenosine receptor A1): 7.94
- pKi (Adenosine receptor A2a [1]): 8.14
- pKi (Adenosine receptor A2b): 7.43
- pKi (Adenosine receptor A3): 6.82
- pKi (Histamine H3 receptor): 7.96
- Activity (Adenosine receptor A2a [2]): inactive
- pKi (Histamine H1 receptor): < 6.00
- pKi (Histamine H4 receptor): < 5.00
- pKi (D(1B) dopamine receptor): < 6.00
- pKi (D(2) dopamine receptor): 5.90
- pKi (D(3) dopamine receptor): 6.54
- inhibition at 0.5 h, 10 µM (MAO-A): 7.4%
- pIC50 [4]: < 6.00
- inhibition at 0.5 h, 10 µM (MAO-B): 57%
- Ratio Ki (Homo sapiens [5]): 1
- Ratio Ki (Homo sapiens [6]): 0.66
- Ratio Ki (Homo sapiens [7]): 3
- Ratio Ki (Homo sapiens [8]): 14
- Ratio Ki (Homo sapiens [9]): 113
- Ratio Ki (Homo sapiens [10]): 26
- Ratio Ki (Homo sapiens [11]): 0.63
- Ratio Ki (Homo sapiens [12]): 3
- Ratio Ki [13]: 13
- Ratio Ki (Homo sapiens [14]): 108
- Ratio Ki (Homo sapiens [15]): 25
- Ratio Ki (Homo sapiens [16]): 5
- Ratio Ki (Homo sapiens [17]): 21
- Ratio Ki (Homo sapiens [18]): 172
- Ratio Ki (Homo sapiens [19]): 40
- Ratio Ki (Homo sapiens [20]): 4
- Ratio Ki (Homo sapiens [21]): 34
- Ratio Ki (Homo sapiens [22]): 8
- Ratio Ki (Homo sapiens [23]): 8
- Ratio Ki (Homo sapiens [24]): 2
- Ratio Ki (Homo sapiens [25]): 0.23
SMILES: Nc1nc(-c2ccccc2)c2c(n1)-c1cc(OCCCN3CCCC3)ccc1C2
- pKi [3]: < 6.00
- Activity (Rattus norvegicus): Dose-Dependent Effect

- pKi (Adenosine receptor A1): < 6.00
- pKi (Adenosine receptor A2a [1]): 6.03
- pKi (Adenosine receptor A2b): < 6.00
- pKi (Adenosine receptor A3): < 6.00
- pKi (Histamine H3 receptor): 9.22
- inhibition [26]: 23%
- inhibition [27]: 13%
- inhibition ([28]; filed as antagonist): 50%
SMILES: Nc1nc(-c2ccc(OCCCN3CCCCC3)cc2)c2c(n1)-c1ccc(OCCCN3CCCCC3)cc1C2

- pKi (Adenosine receptor A1): 6.44
- pKi (Adenosine receptor A2a [1]): 6.85
- pKi (Adenosine receptor A2b): 6.94
- pKi (Adenosine receptor A3): < 6.00
- pKi (Histamine H3 receptor): 7.44
- inhibition [28]: 12%
SMILES: Nc1nc(-c2ccccc2)c2c(n1)-c1ccc(OCCCN3CCCCC3)cc1C2=O

- pKi (Adenosine receptor A1): ≤ 6.00
- pKi (Adenosine receptor A2a [1]): 6.69
- pKi (Adenosine receptor A2b): < 6.00
- pKi (Adenosine receptor A3): < 6.00
- pKi (Histamine H3 receptor): 9.51
- inhibition ([26]; filed as antagonist): 44%
- inhibition [27]: 15%
- inhibition [28]: 32%
SMILES: Nc1nc(-c2ccc(OCCCN3CCCCC3)cc2)c2c(n1)-c1ccc(OCCCN3CCCCC3)cc1C2=O
